Data taken from patent US12208088B2 (Genentech, Inc., priority 2018, dated 2025).

How the values were obtained:
HPK1 = HPK1 (Homo sapiens (Human), UniProt Q92918); experiment: HPK1 Lantha binding assay ("Lanth"); conditions: binding assays; Morrison Ki fit
In short: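 Ki values are from Morrison-equation fitting of 665/615 nm TR-FRET signals, taking enzyme level, tracer level and tracer Kd into account. The assay mix held HPK1 (2 nM), Eu-anti-GST antibody (2 nM) and Tracer222 (15 nM). Incubations were two 1 h steps at 23 °C, on 5-fold serial compound dilutions.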

[1] = tested on: primary human pan T cells; experiment: Human T-cell IL2 induction assay; assay type: cell-based; conditions: IL-2, anti-CD3/anti-CD28 stimulated T cells
Protocol: Example B3: Human T-Cell IL2 Induction Assay
Anti-CD3 and anti-CD28 activates TCR signaling in primary human pan T cells leading to IL-2 promoter induction. Secreted IL-2 in cell culture supernatant is detected by electrochemiluminescence using a capture antibody against IL-2 and an anti-IL-2 antibody labeled with SULFO-tag.
See www.mesoscale.com for additional electrochemiluminescence technology information.
Incubate primary human pan T cells with varying concentrations of test compounds for 30 minutes in a humidified incubator at 37° C. and 5% CO2. Transfer cells to a plate pre-coated with a fixed concentration of anti-human CD3 (determined separately for each donor lot) and add soluble anti-human CD28 (final concentration=1 μg/ml). Stimulate cells in a humidified incubator at 37° C. and 5% CO2 for 4 hours. Transfer 25 μl of supernatant to a MSD single spot plate pre-coated with an anti-human IL-2 antibody. Incubate MSD plate overnight at 4° C. with gentle shaking. Wash MSD plate 4× with wash buffer. Add SULFO-tagged detection antibody at a 1:50 dilution and incubate at room temperature shaking for 2 hours. Wash MSD plate 4× with wash buffer and add […] 2×MSD read buffer. Read on an MSD instrument. Normalize data to stimulated/untreated controls to calculate % activity at each concentration of compound.
• Frozen Primary Human Pan-T Cells (StemCell Technologies #70024) • anti-human CD3 (OKT3 clone) (eBioscience #16-0037-81) • anti-human CD28 (CD28.2 clone) (BD #555725) • 96-well Human IL-2 tissue culture kit (MSD #K151AHB-4) Instrumentation: • Biomek FX for liquid handling (Beckman Coulter) • MSD SECTOR S 600 (Meso Scale Discovery)
Exemplary compounds of Formula (I) were tested in the human T-cell IL-2 induction assays. The % increase measured for IL-2 in cells treated by the test compounds relative to untreated cells are provided in Table B2 for certain compounds.

Sequence of HPK1 (Q92918 1-346 limits assumed): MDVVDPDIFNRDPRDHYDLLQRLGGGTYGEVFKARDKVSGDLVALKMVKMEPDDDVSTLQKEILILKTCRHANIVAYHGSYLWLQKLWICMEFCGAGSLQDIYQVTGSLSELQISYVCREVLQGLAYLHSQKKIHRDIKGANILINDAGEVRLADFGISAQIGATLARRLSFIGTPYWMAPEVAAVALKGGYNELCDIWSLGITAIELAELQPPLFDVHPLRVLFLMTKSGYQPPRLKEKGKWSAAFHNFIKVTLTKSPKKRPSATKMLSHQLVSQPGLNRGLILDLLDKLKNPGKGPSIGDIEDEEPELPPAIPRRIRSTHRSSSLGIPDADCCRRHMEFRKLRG

SMILES	Ki (HPK1) [nM]	other results
CC[C@H]1C[C@@]12CNc1ncc(-c3ccc(N)c(C(=O)N(C)C)c3F)cc12 [Compound 243a, 6-Amino-3-((1R,2S)-2-ethyl-1′,2′-dihydrospiro[cyclopropane-1,3′-pyrrolo[2,3-b]pyridin]-5′-yl)-2-fluoro-N,N-dimethylbenzamide]		% IL relative to untreated cells ([1]; assayed concentration 2.8 μM): 111%
Cc1c(CC#N)ccnc1-c1cccc(-c2cnc3c(c2Cl)[C@@]2(CC[C@@](C)(C(N)=O)C2)CN3)c1F [Compound 267b, (1S,3R)-4′-Chloro-5′-(3-(4-(cyanomethyl)-3-methylpyridin-2-yl)-2-fluorophenyl)-3-methyl-1′,2′-dihydrospiro[cyclopentane-1,3′-pyrrolo[2,3-b]pyridine]-3-carboxamide]		% IL relative to untreated cells ([1]; assayed concentration 0.926 μM): 298%
Cc1c(CC#N)ccnc1-c1cc(N)cc(-c2cnc3c(c2Cl)[C@@]2(CC[C@@](C)(C#N)C2)CN3)c1 (stereo in doubt) [Compound 274b, (1S,3R)-5′-(3-Amino-5-(4-(cyanomethyl)-3-methylpyridin-2-yl)phenyl)-4′-chloro-3-methyl-1′,2′-dihydrospiro[cyclopentane-1,3′-pyrrolo[2,3-b]pyridine]-3-carbonitrile]		% IL relative to untreated cells ([1]; assayed concentration 0.926 μM): 564%
O=S(=O)(Nc1ccc(-c2cnc3c(c2Cl)C2(CC=CC2)CN3)cc1)C1CC1 [Compound 207, N-(4-(4′-Chloro-1′,2′-dihydrospiro[cyclopentane-1,3′-pyrrolo[2,3-b]pyridin]-3-en-5′-yl)phenyl)cyclopropanesulfonamide]	87	
CN(C)C(=O)c1c(N)ccc(-c2cnc3c(c2Cl)[C@]2(CC[C@](C)(O)CC2)CN3)c1F [Compound 194b, 6-Amino-3-((1s,4s)-4′-chloro-4-hydroxy-4-methyl-1′,2′-dihydrospiro[cyclohexane-1,3′-pyrrolo[2,3-b]pyridin]-5′-yl)-2-fluoro-N,N-dimethylbenzamide]	8.36	
CO[C@@H]1C[C@@]2(CNc3ncc(-c4ccc(N)c(C(=O)N(C)C)c4F)c(Cl)c32)C[C@H]1O (stereo in doubt) [Compound 140a, 6-Amino-3-((1R,3S,4S)-4′-chloro-3-hydroxy-4-methoxy-1′,2′-dihydrospiro[cyclopentane-1,3′-pyrrolo[2,3-b]pyridin]-5′-yl)-2-fluoro-N,N-dimethylbenzamide]	339	
Cc1cnn([C@H]2CC[C@]3(CC2)CNc2ncc(-c4ccc(N)c(C(=O)N(C)C)c4F)c(Cl)c23)c1 [Compound 148a, 6-Amino-3-((1s,4s)-4′-chloro-4-(4-methyl-1H-pyrazol-1-yl)-1′,2′-dihydrospiro[cyclohexane-1,3′-pyrrolo[2,3-b]pyridin]-5′-yl)-2-fluoro-N,N-dimethylbenzamide]	2.21	
Nc1cc(-c2cnc3c(c2)C2(CC2)CN3)nc(-c2ncccn2)c1 [Compound 295, 2-(1′,2′-dihydrospiro[cyclopropane-1,3′-pyrrolo[2,3-b]pyridin]-5′-yl)-6-(pyrimidin-2-yl)pyridin-4-amine]	387	

Further lines, with some results ahead:

Ki (HPK1) [nM]	SMILES	other results
8.49	CN(C)C(=O)c1c(N)ccc(-c2cnc3c(c2Cl)[C@]2(CC[C@](C)(C#N)CC2)CN3)c1F [Compound 250a, 6-Amino-3-((1s,4s)-4′-chloro-4-cyano-4-methyl-1′,2′-dihydrospiro[cyclohexane-1,3′-pyrrolo[2,3-b]pyridin]-5′-yl)-2-fluoro-N,N-dimethylbenzamide]	% IL relative to untreated cells ([1]; assayed concentration 25 μM): 504%
3	CN(C)C(=O)c1c(N)ccc(-c2cnc3c(c2Cl)[C@]2(CC[C@@H](CO)C2)CN3)c1F [Compound 259c, 6-Amino-3-((1R,3R)-4′-chloro-3-(hydroxymethyl)-1′,2′-dihydrospiro[cyclopentane-1,3′-pyrrolo[2,3-b]pyridin]-5′-yl)-2-fluoro-N,N-dimethylbenzamide]	% IL relative to untreated cells ([1]; assayed concentration 8.3 μM): 604%
12.5	CN(C)C(=O)c1c(N)ccc(-c2cnc3c(c2Cl)[C@]2(CC[C@H](C#N)CC2)CN3)c1F [Compound 241b, 6-Amino-3-((1s,4s)-4′-chloro-4-cyano-1′,2′-dihydrospiro[cyclohexane-1,3′-pyrrolo[2,3-b]pyridin]-5′-yl)-2-fluoro-N,N-dimethylbenzamide]	
